US20140309171A1, “MARKER FOR BLOOD COAGULATION” (Universite Catholique De Louvain, priority 2011, published 2014)
“Also recorded” adds a separate entry of the source.

Legend:
Assay type in all cases: cell-based
[1] = tested on: intracellular Ca2+ in human platelets; assay: Cytosolic Ca2+ measurement in fluo-3-loaded platelets; conditions: 10 μM STO-609, 0.1 U/ml thrombin, 1 mM extracellular Ca2+
Protocol: Platelets pelleted from the platelet-rich plasma were suspended in Ca^2+-free modified Tyrode's buffer and then incubated with 3 μM flou-3/acetoxymethyl ester (Santa Cruz Biotechnology) at 37° C. for 30 min. Probenecid 2.5 mM (Sigma-Aldrich) was added to the buffer throughout the experiments to prevent leakage of the dye. After 2 washings, fluo-3-loaded platelets were suspended in modified Tyrode's buffer at a concentration of 2 10^7 platelets/ml. They were then pre-incubated with 10 μM STO-609 in the presence of 1 mM extracellular Ca^2+ with stirring at 37° C. for 2 min before the addition of thrombin (0.1 U/ml). Fluorescence (excitation 505 nm, emission 530 nm) was measured with a spectrophotometer (AMINCO SPF500). Ca^2+ concentration as estimated as follows: Kd* (F−Fmin)/(Fmax−Fmin), where the Kd of Fluo-3 is ([…] at 37° C.). The minimal fluorescence (Fmin) is the fluorescence in the absence of Ca^2+ and Fmax is the fluorescence determined with ionomycin 1 μM.

[2] = tested on: cofilin Ser3 phosphorylation; assay: Western blot of cofilin Ser3 phosphorylation in human platelets; conditions: 0.1 U/ml thrombin, 10 μM STO-609, 10 min after thrombin exposure
Protocol: (§1) Washed human platelets (used in in vitro studies). Platelets were obtained from adult healthy volunteers in accordance with the Ethics Commission of our institution (Commission d'Ethique Biomédicale Hospitalo-Facultaire, Université catholique de Louvain). Whole blood was collected with butterfly needle 21G into Sodium Citrate 1:10 solution (S-monovette). Platelet-rich plasma (PRP) was obtained by 15 min centrifugation at 330 g. The platelets pellet was then washed in Tyrode modified buffer (135 mM NaCl, 12 mM NaHCO3, 1 mM Sodium Citrate, 2.9 mM KCl, 0.3 mM Na2HPO4, 1 mM MgCl2, 5 mM D-glucose, 10 mM Hepes, 0.35% bovine serum albumin (BSA), pH 7.4 at 37° C.) and resuspended to a density of 2.5 10^5 platelets/μl for the measurement of intracellular Ca^2+ or platelet aggregation. […]
(§2) Proteins were separated as described (Miranda et al. 2010. J Clin Invest 103(6): 879-887). […] Bound antibodies were detected by enhanced chemiluminescence (Thermofisher). […] Band intensities were quantified by scanning and processing image intensities with the program ImageJ (1.33 for Mac OS X). The quantification of immunoblots presented in results was obtained after normalization using the internal loading control.

[3] = tested on: myosin light chain (MLC) Ser 19 phosphorylation; assay: Western blot of MLC Ser19 phosphorylation in human platelets; conditions: 0.1 U/ml thrombin, pre-incubation with STO-609
Protocol: as §1, §2

[4] = tested on: VASP Thr 278 phosphorylation; assay: Western blot of VASP Thr278 phosphorylation in human platelets; conditions: 0.1 U/ml thrombin, pre-incubation with STO-609
Protocol: as §1, §2

[5] = tested on: activated conformation of αIIbβ3 on human platelets; assay: Flow cytometry, PAC-1 binding; conditions: 0.025 U/ml thrombin, 10 μM STO-609
Protocol: Flow cytometric analysis was performed on a FACScan (Becton Dickinson). Washed human platelets (2·10^5 platelets/μl) were pre-incubated with DMSO/STO-609 for 2 min and then treated with or without thrombin (0.025 U/ml) in the presence of excessive amounts of FITC-conjugated monoclonal antibody (anti-CD62P (BD Biosciences) or PAC-1 (BD Biosciences)) at room temperature. The samples were then fixed at 4° C. for 30 min with 2% paraformaldehyde. The levels of P-selectin expression and PAC1 binding were expressed as the percentages of cells positive for anti-CD62P and PAC-1, respectively. The negative cut-off for each antibody was set using resting platelets that gave less than 5% of cells positive for binding of anti-CD62P or PAC-1. In addition to aggregation measurements, we examined by flow cytometry STO-609 effects on PAC-1 binding, an antibody specific for the activated conformation of αIIbβ3. Platelets were activated by 0.025 U/ml thrombin in the absence or presence of 10 μM STO-609.

[6] = tested on: Ser79 acetyl-CoA carboxylase (ACC) phosphorylation in human platelets; assay: Western blot of phosphorylated (Ser79) ACC in human platelets; conditions: 10 μM STO-609, 0.1 U/ml thrombin
washed human platelets = assay: Platelet aggregation, light transmission (Chrono-Log Aggregometer)
Protocol: Washed human platelets (used in in vitro studies). Platelets were obtained from adult healthy volunteers in accordance with the Ethics Commission of our institution (Commission d'Ethique Biomédicale Hospitalo-Facultaire, Université catholique de Louvain). Whole blood was collected with butterfly needle 21G into Sodium Citrate 1:10 solution (S-monovette). Platelet-rich plasma (PRP) was obtained by 15 min centrifugation at 330 g. The platelets pellet was then washed in Tyrode modified buffer (135 mM NaCl, 12 mM NaHCO3, 1 mM Sodium Citrate, 2.9 mM KCl, 0.3 mM Na2HPO4, 1 mM MgCl2, 5 mM D-glucose, 10 mM Hepes, 0.35% bovine serum albumin (BSA), pH 7.4 at 37° C.) and resuspended to a density of 2.5 10^5 platelets/μl for the measurement of intracellular Ca^2+ or platelet aggregation. For Western Blot analysis, PRP with eptifibatide 4 μg/ml (Integriline, GlaxoSmithKline) and ectonucleotidase apyrase (grade I) 0.5 U/ml was layered over a density barrier of iodixanol (Optiprep®) that allowed the erythrocytes and leucocytes to pellet during centrifugation at 350 g for 15 min. The platelets, because of their small size, sediment much more slowly. After centrifugation at 800 g for 10 min, the resulting pellet was resuspended to a density of 2·10^5 platelets/μl in Tyrode modified buffer before treatment and lysis of samples.
Light transmission during thrombin-induced platelet aggregation in human and murine PRP was recorded with a Chrono-Log Aggregometer at 37° C., under stirring condition (1200 crpm). The platelet suspension was incubated with dimethyl sulfoxide (DMSO, vehicle) or STO-609 (10 μM, Tocris) for 2 min before the addition of the thrombin (+/−0.03 U/ml). CaCl2 2 mM was added prior to the agonists.
To evaluate the potential implication of CaMKKβ in platelet aggregation, washed human platelets were pre-incubated for 2 min with 10 μM STO-609, prior to treatment with thrombin or ADP.

[7] = tested on: TXB2 formation in human platelets; assay: Thromboxane B2 assay in platelet supernatants; conditions: 10 μM STO-609, 0.1 U/ml thrombin for 5 min
Protocol: After 2 min pre-incubation with 10 μM STO-609 or DMSO, washed platelets were treated with 0.1 U/ml thrombin for 5 min. Negative controls corresponded to platelets activated by thrombin in the presence of 1 mM acetylsalicylic acid (ASA). Platelet suspensions were pelleted (quick speed), and TXB2 in the supernatants was assayed according to the manufacturers instructions (Enzo Life Sciences).

O=C(O)c1ccc2c3c1cccc3c(=O)n1c3ccccc3nc21 [STO-609]
rise in Ca2+ concentration in response to thrombin [1]: did not modify
thrombin-induced cofilin phosphorylation, effect of pre-incubation [2]: significantly decreased; also recorded: prevents
thrombin-induced MLC phosphorylation, effect of pre-incubation [3]: decreased significantly; also recorded: prevents
thrombin-induced VASP phosphorylation on Thr 278, effect of pre-incubation [4]: prevents
PAC-1 binding in response to thrombin [5]: significantly inhibited
AMPK activation, as judged by phosphorylation of downstream Ser79 acetyl-CoA carboxylase (ACC) [6]: markedly reduced
platelet aggregation caused by ADP (effect in words) (washed human platelets; 20 μM ADP, 10 μM STO-609): not inhibited
thrombin-induced platelet aggregation, % of aggregation (washed human platelets; 0.025 U/ml thrombin + 10 μM STO-609, 2 min pre-incubation): 11±4%
thrombin-induced platelet aggregation (effect in words) (washed human platelets; 0.025 U/ml thrombin, 10 μM STO-609): significantly inhibited; also recorded: prevents
thrombin-induced TXB2 formation [7]: not affect
